Experimental data published in BindingDB's records for doi:10.1016/j.ejmech.2017.04.013 (Ghent University, 2017).

Assays:
Histone deacetylase 9 = Histone deacetylase 9 (Homo sapiens, UniProt Q9UKV0); assay: ChEBML_1684755
Histone deacetylase 1 = Histone deacetylase 1 (Homo sapiens, UniProt Q13547); assay: Inhibition of HDAC1 (unknown origin)
[1] = target: Histone deacetylase 8 (Homo sapiens) (UniProt Q9BY41); assay: Inhibition of recombinant human HDAC8 using Boc-Lys (Ac)-AMC substrate by fluorescence assay
Chain of Histone deacetylase 8 (Homo sapiens) (Q9BY41 whole entry, looked up): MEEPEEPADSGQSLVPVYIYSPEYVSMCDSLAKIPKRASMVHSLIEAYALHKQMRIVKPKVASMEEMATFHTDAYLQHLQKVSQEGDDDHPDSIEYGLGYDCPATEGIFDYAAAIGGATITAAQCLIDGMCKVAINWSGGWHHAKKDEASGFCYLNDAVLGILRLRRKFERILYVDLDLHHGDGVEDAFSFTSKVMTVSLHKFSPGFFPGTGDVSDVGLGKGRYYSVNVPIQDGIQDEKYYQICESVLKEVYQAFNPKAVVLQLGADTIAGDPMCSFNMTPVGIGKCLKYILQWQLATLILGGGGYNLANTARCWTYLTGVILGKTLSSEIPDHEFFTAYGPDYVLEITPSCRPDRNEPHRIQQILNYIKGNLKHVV

Chain of Histone deacetylase 1 (Q13547 whole entry): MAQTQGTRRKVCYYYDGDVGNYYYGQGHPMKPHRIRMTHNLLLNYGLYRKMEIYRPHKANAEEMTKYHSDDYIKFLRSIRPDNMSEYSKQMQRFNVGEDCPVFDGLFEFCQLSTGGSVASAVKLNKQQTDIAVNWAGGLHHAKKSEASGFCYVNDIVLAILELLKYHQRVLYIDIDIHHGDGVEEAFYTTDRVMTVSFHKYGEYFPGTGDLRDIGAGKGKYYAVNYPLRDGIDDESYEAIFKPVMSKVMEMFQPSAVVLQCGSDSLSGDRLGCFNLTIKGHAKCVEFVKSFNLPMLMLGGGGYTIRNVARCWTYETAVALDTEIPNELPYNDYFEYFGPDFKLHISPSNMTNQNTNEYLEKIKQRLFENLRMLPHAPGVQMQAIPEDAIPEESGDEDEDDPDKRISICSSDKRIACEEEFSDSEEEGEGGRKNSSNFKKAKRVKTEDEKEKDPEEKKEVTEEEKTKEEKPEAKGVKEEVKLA
Chain of Histone deacetylase 9 (Q9UKV0 whole entry): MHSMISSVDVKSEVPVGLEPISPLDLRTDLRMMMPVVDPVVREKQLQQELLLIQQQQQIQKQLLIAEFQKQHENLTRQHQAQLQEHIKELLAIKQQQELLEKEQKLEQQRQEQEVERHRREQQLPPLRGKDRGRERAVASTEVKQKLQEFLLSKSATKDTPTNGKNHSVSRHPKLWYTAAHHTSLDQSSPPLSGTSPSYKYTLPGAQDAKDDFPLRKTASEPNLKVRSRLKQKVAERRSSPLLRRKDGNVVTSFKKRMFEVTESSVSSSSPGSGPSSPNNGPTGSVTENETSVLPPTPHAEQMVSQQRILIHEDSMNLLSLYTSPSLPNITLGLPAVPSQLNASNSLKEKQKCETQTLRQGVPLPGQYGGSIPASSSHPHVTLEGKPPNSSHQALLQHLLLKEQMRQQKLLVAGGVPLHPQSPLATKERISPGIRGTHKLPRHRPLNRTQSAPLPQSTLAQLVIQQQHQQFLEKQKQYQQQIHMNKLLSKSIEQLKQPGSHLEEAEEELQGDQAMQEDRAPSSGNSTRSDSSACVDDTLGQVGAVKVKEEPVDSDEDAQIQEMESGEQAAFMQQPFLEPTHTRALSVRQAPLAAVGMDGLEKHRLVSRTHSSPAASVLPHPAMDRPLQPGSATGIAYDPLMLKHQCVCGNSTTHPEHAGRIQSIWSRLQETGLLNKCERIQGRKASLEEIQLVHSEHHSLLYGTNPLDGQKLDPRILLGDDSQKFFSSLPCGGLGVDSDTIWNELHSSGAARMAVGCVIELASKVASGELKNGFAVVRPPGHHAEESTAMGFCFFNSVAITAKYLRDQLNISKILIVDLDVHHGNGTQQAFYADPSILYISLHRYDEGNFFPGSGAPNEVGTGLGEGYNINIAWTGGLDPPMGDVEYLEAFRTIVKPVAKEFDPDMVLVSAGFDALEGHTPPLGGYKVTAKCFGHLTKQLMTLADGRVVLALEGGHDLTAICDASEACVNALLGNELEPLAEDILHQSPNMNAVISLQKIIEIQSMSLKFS

IC50 (Histone deacetylase 9) | IC50 (Histone deacetylase 1) | IC50 [1] | Structure (SMILES)
70 nM | 9000 nM |  | Cc1nc2ccccc2n1Cc1ccc(C(=O)NO)cc1F
 |  | 280 nM | O=C(NO)c1ccc(Cn2cc(-c3ccc(CN4CCCC4)cc3)nn2)cc1
